These results are taken from patent US20100190845A1, “METHOD OF TREATING CANCER USING ATP SYNTHASE INHIBITORS” (NATIONAL TAIWAN UNIVERSITY, priority 2009, published 2010).

“Also recorded” adds a separate entry of the source. Where two headings read alike, the source gives them in different places.

Data set [1] concerns MCF-7 cells. The data set is described as follows: Annexin V-FITC/PI analysis of apoptosis. Format: cell-based, human. Particulars: MCF-7, 0.05-10 μM, 48 hours. The protocol:
Flow cytometric analysis was performed to identify and quantify the apoptotic cells by using Annexin V-FITC/PI (propidium iodide) apoptosis detection kit (Santa Cruz Biotechnology, Santa Cruz, Calif., USA). […] After incubation, floating and adherent cells were harvested. Cells were washed carefully with cold PBS at 4° C. Cell pellets were resuspended in […] of binding buffer. Annexin-V FITC (0.2 μg/100 μL) and PI (10 μg/mL) was added to the cells and left for incubation in the dark for 15 min at room temperature. All data were acquired by flow cytometry using a FACSCanto cytometer (Becton Dickinson, San Jose, Calif., USA). The flow cytometric analysis was performed using FCS Express 3.0 (DeNovo software).

Data set [2] concerns T47D breast cancer cell line. The data set is described as follows: MTT assay, cell viability. Type of data set: cell-based. To be noted: Homo sapiens, 48 hours. The protocol: (§1) Human breast cancer cell lines, MCF-7, MDA-MB231, T47D and human normal breast cell line MCF-10A, were obtained from the American Type Culture Collection (Manassas, Va.). Human breast cancer cell lines were maintained in DMEM at 37° C. with 5% CO2 (Gibco, Carlsbad, Calif., USA), 5% fetal bovine serum (Gibco), 50 units/mL penicillin, and 50 μg/mL streptomycin (Gibco). MCF-10A cells were culture in DMEM (Gibco), 0.01 mg/mL Insulin, 5 μg/mL Hydrocortisone.
(§2) Cytotoxic effects on the growth and viability of cells were determined using MTT (3(4,5-dimethylthiazol-2-yl)-2,5-diphenyltetrazolium bromide, a tetrazole) assay. 10^4 cells/mL were plated in 96-well plates and allowed to attach for 24 hours. Cells were treated with […] of aurovertin B, resveratrol and piceatannol for 48 hours. At the end of the incubation period, MTT reagent (10 μL) was added to each 100 μL of culture. After incubation for 4 hr at 37° C., the formed water insoluble formazan dye was solubilized by adding 100 μL of DMSO to the culture wells. The plates were further incubated for 15 min at room temperature, and optical density (OD) of the wells was determined using ELISA microplate reader at a test wavelength of 570 nm. All experiments were performed in triplicates.

For data set [3], the system named is MDAMB231 breast cancer cell line. The data set is described as follows: MTT assay, cell viability. Format: cell-based. Particulars: Homo sapiens, MDA-MB-231, MDAMB231, 48 hours. How it is done: as §1, §2
Data set [4] in a line: Viable cell number counting using trypan blue. Format: cell-based. Particulars: human; IMR-90 normal lung cells, same time points; read-out: cell viability rate. The text has this:
(§3) Apart from the traditional role in ATP production, ATP synthase may play critical roles in tumor cell metastases. Human lung adenocarcinoma cell lines CL1-1 and CL1-5 with different metastasis were obtained from the American Type Culture Collection (Manassas, Va.), and human normal lung cell line IMR-90 was obtained from Institute of Biomedical Sciences, Academia Sinica. The CL1-5 cell line is highly metastatic lung cancer cells, but the CL1-1 cell line is low metastatic lung cancer cells.
(§4) Human lung adenocarcinoma cell lines were maintained in DMEM at 37° C. with 5% CO2 (Gibco, Carlsbad, Calif., USA), 5% fetal bovine serum (Gibco), 50 units/mL penicillin, and 50 μg/mL streptomycin (Gibco). IMR-90 cells were culture in DMEM (Gibco), 0.01 mg/mL Insulin, 5 μg/mL Hydrocortisone.
(§5) As shown in FIG. 9 to FIG. 11, cell proliferation assays were in the presence of three F1-targeting H-ATP synthase inhibitors: aurovertin B, resveratol, and piceatannol. […] Thus, aurovertin B caused significant apotosis in CL1-1 and CL1-5 cells.

For the next data set, the system named is CL1-1 lung cancer cells. The data set can be described thus: cells. Format: cell-based, human. To be noted: for IC50: Homo sapiens.
Excerpt: as §3, §4, §5

A further data set has as its system CL1-5 lung cancer cells. The data set can be described thus: cells. Type of data set: cell-based, human. To be noted: for IC50: Homo sapiens.
Excerpt: as §3, §4, §5

Data set [5] deals with MCF-7 cells. The data set can be described thus: DAPI staining of nuclear morphology. Format: cell-based, human. Particulars: MCF-7, 48 h, IC50 concentration. How it is done:
After treatment for 48 h with DMSO (control) or aurovertin B (at their respective IC50 concentrations), cells were fixed in 4% paraformaldehyde for 15 min and stained with DAPI (2 μg/mL in PBS) for 15 min at 37° C. to detect apoptotic bodies (Sigma, St. Louis, Mo., USA). Results were determined by visual observation of nuclear morphology via fluorescence microscopy.

Data set [6] has as its system normal breast cell line MCF-10A. The data set is described as follows: MTT assay, cell viability. Format: cell-based, human. To be noted: MCF-10A, under these concentrations. The protocol:
as §1, §2
In general terms: Formazan colour is commonly taken as a measure of viable cells.

Data set [7] deals with MCF-7 breast cancer cells. The data set can be described thus: MTT assay, cell viability. To be noted: MCF-7, 48 hours. Format: cell-based, human. The protocol: as §1, §2
Data set [8] is described as follows: MTT assay, cell viability. Type of data set: cell-based, human. Particulars: human; MCF-10A normal breast cells, same time points; read-out: cell viability rate. The protocol:
as §1, §2

Data set [9] concerns HeLa cervical cancer cells. Particulars: Acta Biochimica Polonica 2004; cited from earlier work.
The subject of data set [10] is MCF-7 cells. The data set is described as follows: Cell cycle analysis by flow cytometry. Type of data set: cell-based, human. To be noted: 48 hours (control 63.1%). How it is done:
For the determination of cell cycle phase distribution, 3×10^5 MCF-7 cells were first exposed to various concentrations of aurovertin B in DMEM with 10% FBS for 48 hr by flow cytometric analysis. The cells were trypsinized, collected and fixed in 70% cold ethanol (−20° C.) overnight. After washing twice with PBS, cells were resuspended in PBS. RNase A (1 mg/mL) and PI (10 μg/mL) were added to the fixed cells for 30 min. The DNA content of cells was then analyzed with a FACSCanto instrument (Becton Dickinson, San Jose, Calif., USA). The percentage of cells in different phases of the cell cycle was calculated by MultiCycle (DeNovo software, Ontario, Canada).
(A flow cytometer gives signals particle by particle.)

With `CC[C@H]1OC2(C)C(OC(C)=O)[C@@]1(C)OC(/C=C/C=C/C=C/c1oc(=O)cc(OC)c1C)[C@@H]2O` (stereo partly drawn) [aurovertin B], the “early and late apoptotic/necrotic cells” value in the data set on MCF-7 cells [1] is “dose-dependent increase in both early and late apoptotic/necrotic cells”. Moreover, the IC50 (as a rule, the concentration needed to halve the response being measured) is 890 nM in [2]; 5520 nM in data set [3]; 100 to 500 nM with CL1-1 lung cancer cells (CL1-1); approximately 500 nM in the data set on CL1-5 lung cancer cells (CL1-5, CL1-5, highly metastatic lung cancer cells); 100 nM in data set [7] (Homo sapiens, MCF7, 48 h); 90 nM in data set [7]. In data set [4], the viability (in general, a per cent measure of how many cells are alive, often set against a control) was not below 60%. Besides, the “morphological changes of the nuclei” value with MCF-7 cells [5] is “condensation and shrinkage of nuclei”. In data set [6], the “cytotoxicity to normal cells” value was “no apparent cytotoxicity”. Besides, the viability at 48 h in data set [8] was not below 80%. Moreover, in data set [9], the “release of cytochrome c and apoptosis” value is “didn't affect the release of cytochrome c and apoptosis; also recorded: can't cause apotosis”. Further, the “percentage of cells in G0/G1 phase” value amounted to 66.5% in the data set on MCF-7 cells [10] (MCF-7, 0.1 μM); 78.5% in the data set with MCF-7 cells [10] (MCF-7, 1 μM); 81.2% in the data set with MCF-7 cells [10] (MCF-7, 5 μM).

As for `Oc1cc(O)cc(/C=C/c2ccc(O)c(O)c2)c1` [piceatannol], in [4], the viability was found to be 60%. Further, the cell viability rate with CL1-1 lung cancer cells (CL1-1) and in the data set on CL1-5 lung cancer cells (CL1-5) was not below 80% each time.

Regarding `Oc1ccc(C=Cc2cc(O)cc(O)c2)cc1` [resveratrol], the viability in [4] was not above 60%. For the same compound, the 50% inhibitory concentration (IC50) with CL1-1 lung cancer cells (CL-11, CL1-1, low metastatic lung cancer cells, read-out: IC50) was 10000 nM; in the data set with CL1-5 lung cancer cells (CL1-5, highly metastatic lung cancer cells, read-out: IC50), approximately 5000 nM.
